pIC50: −log10 of the molar value. The source made the active and inactive calls. The calls are words filed in the database; no cut-off is given here.
Experiments:
[1] = Effect of Wnt/beta-Catenin signaling pathway in human SW480 cells assessed as reduction in BCL9L level at 10 uM incubated for 24 hrs by qRT-PCR analysis relative to control; type: functional; settings: SW480, 24 h
CYP2D6 = CYP2D6 (Homo sapiens, UniProt P10635); experiment: Inhibition of CYP2D6 in human liver microsomes using bufuralol as substrate at 10 uM in presence of NADPH incubated for 10 mins; type: ADME, Microsome; settings: probe bufuralol
Chain of CYP2D6 (P10635 whole entry): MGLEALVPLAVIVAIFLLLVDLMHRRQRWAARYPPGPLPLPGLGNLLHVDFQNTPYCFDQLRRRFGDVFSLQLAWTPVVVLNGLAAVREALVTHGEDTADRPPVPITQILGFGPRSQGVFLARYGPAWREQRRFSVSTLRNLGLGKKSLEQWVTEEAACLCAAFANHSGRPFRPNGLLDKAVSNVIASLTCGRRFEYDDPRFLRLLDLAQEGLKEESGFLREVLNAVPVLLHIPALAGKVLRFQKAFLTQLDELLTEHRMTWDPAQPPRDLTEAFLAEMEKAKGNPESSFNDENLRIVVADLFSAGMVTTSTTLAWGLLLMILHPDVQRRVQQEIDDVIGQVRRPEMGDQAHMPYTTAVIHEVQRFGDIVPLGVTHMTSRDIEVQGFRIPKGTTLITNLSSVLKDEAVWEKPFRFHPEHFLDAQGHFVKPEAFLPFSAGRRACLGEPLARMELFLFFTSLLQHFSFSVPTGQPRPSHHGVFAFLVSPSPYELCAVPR

HCT-116 = experiment: Antiproliferative activity against human HCT-116 cells assessed as inhibition of cell growth measured by MTS method; type: functional, cell-based
MDA-MB-468 [2] = experiment: Antiproliferative activity against human MDA-MB-468 cells assessed as inhibition of cell growth measured by MTS method; type: functional, cell-based
SW480 [3] = experiment: Effect of Wnt/beta-Catenin signaling pathway in human SW480 cells assessed as decrease in Axin2 level at 20 uM incubated for 24 hrs by Western blot analysis; type: functional, cell-based; settings: DDE = dose-dependent effect
[4] = Effect of Wnt/beta-Catenin signaling pathway in human SW480 cells assessed as reduction in Cyclin D1 level at 5 uM incubated for 24 hrs by qRT-PCR analysis relative to control; type: functional; settings: SW480, 24 h
[5] = biological target: beta-catenin-B-cell lymphoma 9 protein complex (Homo sapiens) (UniProt P35222+O00512); experiment: Disruption of beta-catenin/N-terminal biotinylated human BCL9 HD2 (350 to 375 residues) protein-protein interaction in human SW480 cells incubated for 1 hr followed by N-terminal biotinylated human BCL9 HD2 addition and measured after 2 hrs by immunoblot based pull-down assay; type: cell-based; settings: time 3.0 hrs, DDE = dose-dependent effect
MDA-MB-468 [6] = experiment: Effect of Wnt/beta-Catenin signaling in human MDA-MB-468 cells transfected with beta-catenin plasmid assessed as inhibition of cell growth rescue measured after 72 hrs by MTS assay; type: functional, cell-based
[7] = Effect of Wnt/beta-Catenin signaling pathway in human SW480 cells assessed as reduction in Cyclin D1 level at 20 uM incubated for 24 hrs by qRT-PCR analysis relative to control; type: functional; settings: SW480, 24 h
[8] = Effect of Wnt/beta-Catenin signaling pathway in human SW480 cells assessed as reduction in BCL9L level at 5 uM incubated for 24 hrs by qRT-PCR analysis relative to control; type: functional; settings: SW480, 24 h
[9] = Effect of Wnt/beta-Catenin signaling pathway in human SW480 cells assessed as HPRT level at 10 uM incubated for 24 hrs by qRT-PCR analysis relative to control; settings: SW480, 24 h
[10] = Effect of Wnt/beta-Catenin signaling pathway in human SW480 cells assessed as reduction in Axin2 level at 10 uM incubated for 24 hrs by qRT-PCR analysis relative to control; type: functional; settings: SW480, 24 h
[11] = Inhibition of Wnt/beta-catenin transactivation signalling in human SW480 cells by TOPFlash reporter gene assay; type: cell-based
SW480 [12] = experiment: Antiproliferative activity against human SW480 cells assessed as inhibition of cell growth measured by MTS method; type: functional, cell-based
CYP1A2 = biological target: T1, CYP1A2 (Homo sapiens, UniProt P05177); experiment: Inhibition of CYP1A2 in human liver microsomes using phenacetin at 10 uM in presence of NADPH incubated for 10 mins; type: ADME, Microsome; settings: probe phenacetin
T1 sequence (P05177 whole entry): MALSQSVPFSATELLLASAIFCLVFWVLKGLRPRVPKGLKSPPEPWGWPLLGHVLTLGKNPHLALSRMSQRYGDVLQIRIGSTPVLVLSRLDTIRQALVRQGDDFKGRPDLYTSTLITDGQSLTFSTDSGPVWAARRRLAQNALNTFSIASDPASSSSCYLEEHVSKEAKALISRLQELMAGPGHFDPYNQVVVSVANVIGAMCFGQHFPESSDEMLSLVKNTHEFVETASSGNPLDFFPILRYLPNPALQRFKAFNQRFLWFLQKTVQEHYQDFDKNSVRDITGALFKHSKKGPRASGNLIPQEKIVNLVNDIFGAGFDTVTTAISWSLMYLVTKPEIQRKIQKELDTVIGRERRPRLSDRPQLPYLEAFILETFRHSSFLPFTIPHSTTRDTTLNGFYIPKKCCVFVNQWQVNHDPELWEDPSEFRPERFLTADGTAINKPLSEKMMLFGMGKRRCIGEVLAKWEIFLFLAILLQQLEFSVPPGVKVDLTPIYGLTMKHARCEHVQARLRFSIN

[13] = Effect of Wnt/beta-Catenin signaling pathway in human SW480 cells assessed as reduction in HPRT level at 20 uM incubated for 24 hrs by qRT-PCR analysis relative to control; type: functional; settings: SW480, 24 h
MCF-10A = experiment: Antiproliferative activity against human MCF-10A cells assessed as inhibition of cell growth measured by MTS method; type: functional, cell-based
[14] = Effect of Wnt/beta-Catenin signaling pathway in human SW480 cells assessed as reduction in Axin2 level at 5 uM incubated for 24 hrs by qRT-PCR analysis relative to control; type: functional; settings: SW480, 24 h

- inhibition at 10 min, 10 µM (CYP2D6): 54%
- pIC50 (HCT-116): 5.02
- pIC50 (MDA-MB-468 [2]): 5.30
- inhibition [5]: Dde
- pIC50 [11]: 5.15
- pIC50 (SW480 [12]): 4.85
- inhibition at 10 min, 10 µM (CYP1A2): 31%
SMILES: CC(C)(Oc1cccc(N2CCC[C@@H](C(=O)N(Cc3ccc(-c4cnc5[nH]ccc5c4)cc3)C3CC3)C2)c1)C(=O)N1CCNCC1.Cl
- level, % of control at 10 µM [1]: 52%
- inhibition (SW480 [3]): Dde
- level, % of control at 5 µM [4]: 89%
- inhibition (MDA-MB-468 [6]): Active
- level, % of control at 20 µM [7]: 29%
- level, % of control at 5 µM [8]: 77%
- level, % of control at 10 µM [9]: 100%
- level, % of control at 10 µM [10]: 56%
- level, % of control at 20 µM [13]: 99%
- pIC50 (MCF-10A): 4.44
- level, % of control at 5 µM [14]: 72%
